Test results as given in EP4700040A1, “PEPTIDE AND LUMINESCENT COMPLEX CONTAINING SAME” (Shenzhen Loggene Life Science & Technology Co., Ltd., priority 2023, dated 2024).

Assays:
Type in all cases: biochemical, human
PCT [1] = assay: Signal-to-noise ratio and linear range for PCT detection, purified fusion proteins (Example 3); parameters: key to luminescence value: luminescence normalized against the background value; details: for Signal-to-noise ratio at 1000 pg/ml: large subunit 100 nM, small subunit fusion 180 nM, CTZ-h 25 µM, 140 s
Method: Test Methods: • (1) MBP-PCT protein was diluted with PBSAD in 10-fold gradient starting from 100 ng/ml, with 8 gradients in total, and 10 µl was added per well; • (2) The large subunit-SCFV5 fusion protein was diluted with PBSA to 100 nM, and 10 µl was added per well; • (3) Different rSCFV18-small subunit mutant fusion proteins were diluted with PBSA to 180 nM, and 10 µl of each was added per well; • (4) The plate was mixed slightly and incubated at 37°C for 10 min; and • (5) 50 µl of Obuffer 6.37-3 containing 25 µM of CTZ-h was added, and after 140 s, the luminescence value was detected. The results are shown after normalization against the background value.

PCT [2] = assay: Luciferase dual-antibody complementary activation assay for PCT detection, clone supernatants, retest with CTZ-h (Example 1); details: for Signal-to-noise ratio: RLU antigen+/RLU antigen-, MBP-PCT 3.3 ng/ml, CTZ-h; for PCT+: luminescence signal value with MBP-PCT 3.3 ng/ml, large subunit-rSCFV5 50 nM, supernatant; for PCT+ / PCT-: retest CTZ-h 25 µM, read after 60 s; for PCT-: luminescence signal value, background control PBSAD without PCT
Method: In order to improve the signal-to-noise ratio and complementary activity of the luciferase dual-antibody complementary activation assay, a series of complementary luciferase small subunits were prepared in this example. Large subunit-rSCFV5 fusion protein (SEQ ID NO: 87) was kept unchanged, and the small subunit sequence of the rSCFV18-small subunit P114 fusion protein (SEQ ID NO: 88) was modified by semi-randomization to prepare rSCFV18-small subunit mutant fusion proteins. Based on the sequence of small subunit P114, and with reference to the 3D structure of complementary luciferase, computer-aided sequence design was employed to generate a library with a theoretical diversity of 2.49*10^6. Primers were designed for PCR amplification using the plasmid pComb3x of rSCFV18-small subunit P114 fusion protein as a template. Subsequently, an expression vector library was constructed by means of restriction digestion and ligation (SfiI, NheI), and a semi-random amino acid mutation library was introduced into the small subunit position and transformed into HB2151 competent cells, yielding a library capacity of 7.6*10^9. The 100 plates were spread, and 9,500 single clones were picked and inoculated into 600 µL of 2YTA medium, followed by incubation at 37°C with shaking at 250 rpm for 2 h. When the bacterial density reached approximately OD600 = 0.6~1.0, IPTG was then added to a final concentration of 1 mM, and the culture was further incubated at 30°C with shaking at 250 rpm for 20 h. The next day, the bacteria were collected by centrifugation at 4°C, 4,500g for 10min. The supernatant was discarded, and the precipitate was resuspended with 200µl of PBS containing polymyxin B at a final concentration of 20,000 u/ml. The suspension was incubated at room temperature with shaking at 100rpm for 1h, and then centrifuged at 4500g for 10min, and the supernatant was used for the test.
Test Methods: • (1) The concentration of large subunit-rSCFV5 fusion protein was diluted to 50 nM, and 15 µl was added per well; • (2) MBP-PCT fusion protein was diluted to 3.3 ng/ml with PBSAD, and 15 µl was added per well. The background control was PBSAD, and 10 µl was added per well; • (3) HB2151 strain containing expression plasmids with different small subunit were induced by 1 mM of IPTG at 30°C overnight, then treated with polymyxin B for 1.5 h, and centrifuged to collect the supernatant, and 2.5 µl supernatant was added per well; • (4) The above three components were slightly mixed, incubated at 37°C for 7 min, and Obuffer 6.37-3 containing Furimazine at a concentration of 25 µM was added, and after 80 s, the luminescence signal value was detected using a bioluminescence detector; and • (5) Clones with RLU higher than 10,000 and a signal-to-noise ratio (RLU antigen+/RLU antigen-) higher than that of the rSCFV18-small subunit P114 fusion protein were selected for retesting. The substrate was replaced with CTZ-h for retesting. Obuffer 6.37-3 containing CTZ-h at a concentration of 25 µM was added, and after 60 s, the luminescence signal value was detected using a bioluminescence detector.

PCT [3] = assay: Complementation of purified rSCFV18-small subunit mutant fusion protein with large subunit-rSCFV5 fusion protein, PCT gradient (Example 2); details: for luminescence value: CTZ-h 25 µM, 20 s; for Signal-to-noise ratio at 1000 pg/ml: PCT 1000 pg/ml versus 0
Method: Protein expression and purification of small subunit mutants: The strains containing plasmids of different small subunits inTable 2, prepared in Example 1, were inoculated into 200ml of 2YTA medium and cultured at 37°C with shaking at 250 rpm for about 3h. When the OD600 reached 1.0, IPTG was added to a final concentration of 1mM, and the culture was further incubated at 30°C with shaking at 250rpm for 20h. The culture were centrifuged at 5,000g for 10min, and the precipitate was resuspended with 10ml of PBS, added with polymyxin B to 20,000u/ml. The suspension was inverted and mixed at room temperature for 1h, and centrifuged at 10,000g to collect the supernatant. The rSCFV18-small subunit mutant fusion protein was purified according to the standard procedure for his-tag protein purification using Ni-NTA resin.
In the same tube, the large subunit-rSCFV5 fusion protein was diluted with PBSA to 50 nM; rSCFV18-small subunit mutant fusion protein was diluted to 90 nM, mixed well, and then 22 µl was added per well; the MBP-PCT fusion protein was diluted in 3-fold gradient with PBSAD (in pg/ml), with 8 gradients in total, 10µl was added per well, and the background control was PBSAD and 10 µl was added per well; the plate was mixed with slight shaking and incubated at 37°C for 6 min, 50 µl of Obuffer 6.37-3 containing 25 µM of CTZ-h then was added, and after 20 s, the luminescence value was detected.

PCT [4] = assay: Signal-to-noise ratio and linear range for PCT detection, purified fusion proteins (Example 3); parameters: key: luminescence normalized against the background value; details: PCT 3.3 (pg/ml); normalized against the background value
[5] = PCT 100 (pg/ml), normalized against the background value
[6] = PCT 1000 (pg/ml), normalized against the background value
[7] = PCT 10000 (pg/ml), normalized against the background value
[8] = PCT 100000 (pg/ml), normalized against the background value
[9] = PCT 0 pg/ml (background control PBSAD)
[10] = PCT 1000 pg/ml, large subunit 50 nM, small subunit fusion 90 nM

Row | signal-to-noise ratios in luciferase dual-antibody complementary activation for PCT detection (PCT [1]; statement in words on Table 3 and Figure 2) | Signal-to-noise ratio (PCT [2]) | PCT+ (PCT [2]) | PCT- (PCT [2]) | Sequence | luminescence value (PCT [1]; PCT 0, background, normalized) | luminescence value (PCT [1]; [5]) | luminescence value (PCT [1]; [6]) | luminescence value (PCT [1]; [7]) | luminescence value (PCT [1]; [8]) | Signal-to-noise ratio at 1000 pg/ml (PCT [1]) | luminescence value (PCT [3]; [9]) | luminescence value (PCT [3]; PCT 1.37 pg/ml) | luminescence value (PCT [3]; PCT 4.12 pg/ml) | luminescence value (PCT [3]; PCT 12.35 pg/ml) | luminescence value (PCT [3]; PCT 37.04 pg/ml) | luminescence value (PCT [3]; PCT 111.1 pg/ml) | luminescence value (PCT [3]; PCT 333.3 pg/ml) | Signal-to-noise ratio at 1000 pg/ml (PCT [3]) | luminescence value (PCT [3]; [10]) | luminescence value (PCT [4])
1 | higher signal-to-noise ratios | 48 | 46672 | 953 | VEGYRLFDRKS [RB073] | 5000 | 12151 | 72352 | 566678 | 1966617 | 14.5 | 412 | 358 | 475 | 591 | 1013 | 2302 | 5886 | 38.9 | 16026 | 5283
2 |  | 12.2 | 5058 | 414 | VTGYRLFEEIL [P114, reference compound] | 5000 | 7073 | 18839 | 129750 | 642399 | 3.8 | 333 | 398 | 383 | 400 | 435 | 495 | 656 | 1.44 | 1256 | 4789
